Measurements as given in patent US20040176316A1, “Compounds for the normalization of the sleep/wake cycle” (priority 2002, published 2004).
“Also recorded” adds a separate entry of the source. Read-outs that look alike come from different tables or passages of the source.

Experiments:
[1] = cited from earlier work
[2] = cited from earlier work; remark: listed apart in the source
cocaine user = assay: Level of activity as a function of time of day in a cocaine user without and with CDP-choline treatment (FIGS. 2A and 2B); type: in vivo
Description: FIGS. 2A and 2B are graphs of level of activity as a function of time of day without (A) and with (B) citicoline treatment. A, B, and C refer to use of alcohol, caffeine, and cocaine, respectively. The numbers indicate a craving for cocaine, based on a 10 point scale. Gray dots indicate ingestion of citicoline.
CDP-choline and related compounds are also useful in the treatment of substance abuse disorders, such as alcohol, cocaine, opiate, opioid, nicotine, or tobacco usage or dependence (U.S. Pat. Nos. 5,958,896 and 6,103,703 and U.S. Provisional Application No. 60/424,972, filed Nov. 8, 2002). Since substance abuse disorders may cause a disruption in the quality of sleep or the sleep/wake cycle, the methods of the invention may be used to normalize the sleep/wake cycle or treat sleep disorders in patients with a substance abuse disorder. In addition, a substance abuse disorder and an abnormal sleep/wake cycle or sleep disorder may be treated simultaneously with the methods described herein. FIGS. 2A and 2B show data on the level of activity of a cocaine user for five days without treatment (FIG. 2A) and for 5 days after treatment with CDP-choline (FIG. 2B, monitoring began 4 days after treatment). […] In addition, the subject's use of cocaine (denoted by C) was eliminated with treatment, and the use of alcohol (denoted by A) was reduced.

[3] = cited from earlier work; remark: listed apart in the source
human subjects = assay: Effects of citicoline on sleep quality and mood, rated by subjects on a 10 point scale (FIG. 1); type: in vivo
Description: FIG. 1 is a graph of the effects of citicoline on sleep quality and mood. […] The quality of sleep is improved, and the sleep/wake cycle is normalized after 2-4 weeks of citicoline treatment. This normalization of the sleep/wake cycle may further promote increased wakefulness or reduce fatigue or tiredness during the day. The administration of citicoline will also likely stabilize the homeostatic processes involved in sleep disorders such as insomnia, sleep apneas (central or obstructive), problem sleepiness, restless leg syndrome, periodic limb movements, and narcolepsy. In addition, citicoline may increase cognitive functioning (Alvarez et al. Methods Find Exp Clin Pharmacol 21:633-44, 1999; Fioravanti et al. Cochrane Database Syst. Rev. 4: CD000269, 2000) and may be used to increase cognitive performance in individuals in a sleep-deprived state, e.g., pilots, physicians, students, or others who may experience long periods without sleep.

[4] = after 2-4 weeks of citicoline treatment
[5] = human subjects, measured by the subjects on a 10 point scale, compared to placebo (FIG. 1)

For `C[N+](C)(C)CCOP(=O)(O)OP(=O)([O-])OC[C@H]1O[C@@H](n2ccc(N)nc2=O)[C@H](O)[C@@H]1O` [CDP-choline, cytidine 5′-diphosphocholine], the tolerability ([1]; mammals) is listed as “well tolerated”, the toxicity symptoms ([2]; ingestion of large amounts in preclinical studies) is listed as “common cholinergic symptoms (salivation, lacrimation, urination, defecation, and vomiting)” and the overdoses ([2]; reported cases) is listed as “no reported cases of overdoses”. The sleep/wake cycle (cocaine user; 5 days of monitoring that began 4 days after treatment, vs five days without treatment) was “normalized to a diurnal pattern”, the “cravings for cocaine (10 point scale)” value (cocaine user; after treatment) was “reduced in intensity” and the “level of activity during the day” value (cocaine user; after treatment vs without treatment) was “more active during the day”. The use of alcohol (cocaine user; with treatment) was “reduced”, the use of cocaine (cocaine user; with treatment) was “eliminated” and the “metabolic conversion after administration” value ([3]; administered either orally or intravenously) was “rapidly metabolized to cytidine and choline; also recorded: rapidly converted into the two major circulating metabolites, choline and cytidine”. The “CDP-choline and/or its metabolites absorbed” value ([3]; orally administered) was “more than 99%”, the excreted in feces ([3]; orally administered) was “less than 1%” and the excretion via lung ([3]; share of dose) was 12.9%. For the same compound, the excretion via urine ([3]; share of dose) was 2.4%, the “rest of the dose metabolized and retained in tissues” value ([3]; share of dose) was 83.9% and the quality of sleep (human subjects; [4]) was “improved”. The sleep/wake cycle (human subjects; [4]) was “normalized”, the mood (human subjects; [5]) was “increases” and the quality of sleep (human subjects; [5]) was “increases”.

In the case of `CN(CC(=O)O)C(=N)N` [Creatine, creatine], the tolerability ([1]; humans) is given as “well tolerated at relatively high doses”.

In the case of `CC(=O)OC[C@H]1O[C@@H](n2ccc(=O)[nH]c2=O)[C@H](OC(C)=O)[C@@H]1OC(C)=O` [triacetyl uridine], the tolerability ([1]; in vivo) is given as “well tolerated”.

In the case of `O=c1ccn([C@@H]2O[C@H](CO)[C@@H](O)[C@H]2O)c(=O)[nH]1` [uridine], the tolerability ([1]; humans) is given as “well tolerated” and the tolerability ([1]; mammals) is given as “well tolerated”.
